Results reported in ChEMBL document CHEMBL2417542 (Bioorg Med Chem Lett, 2013).
Values after ≈ are worked out from the molar mass of the structure shown.

Assays:
[1] = system: Human immunodeficiency virus 1; test: Antiviral activity against HIV1 3B harboring reverse transcriptase Y181C mutant infected in human MT2 cells assessed as protection against virus-induced effect by MTT assay; type: functional, organism-based
[2] = Aqueous solubility of the compound in Britton-Robinson buffer at pH 6.5 after 48 hrs by shake-flask method; type: physicochemical
[3] = system: Human immunodeficiency virus 1; test: Antiviral activity against HIV1 3B harboring reverse transcriptase K103N/Y181C double mutant infected in human MT2 cells assessed as protection against virus-induced effect by MTT assay; type: functional, organism-based
[4] = Intrinsic solubility of the compound in water at 25 degC after 7 days by HPLC analysis; type: physicochemical; settings: buffer, 168 h
[5] = Equilibrium solubility of the compound by shake-flask method; type: physicochemical
[6] = system: Human immunodeficiency virus 1; test: Antiviral activity against HIV1 3B harboring reverse transcriptase Y181C mutant infected in human MT4 cells assessed as protection against virus-induced effect; type: functional, organism-based; settings: Human immunodeficiency virus 1, 3B
[7] = system: Human immunodeficiency virus 1; test: Antiviral activity against wild type HIV1 3B infected in human MT4 cells assessed as protection against virus-induced effect; type: functional, organism-based; settings: Human immunodeficiency virus 1, 3B
[8] = system: MT2; test: (§1) Cytotoxicity against human MT2 cells assessed as growth inhibition; type: cell-based; settings: mt2
[9] = Solubility of the compound in water by HPLC analysis; type: physicochemical
[10] = as §1; type: cell-based; settings: MT2 cells
[11] = Aqueous solubility of the compound; type: physicochemical; settings: aqueous medium
[12] = Human immunodeficiency virus 1, 3B, MT2, read-out: EC50

Cc1cc(C)c(Nc2nc(Nc3ccc(C#N)cc3)nc(OCCCN3CCOCC3)n2)c(C)c1
EC50 [1, 12]: 310 nM
solubility thermodynamic at 48 h [2]: 15.3 µg/mL (≈ 32.3 µM)
EC50 [3, 12]: 31 nM

Cc1cc(C)c(Nc2ncnc(Nc3ccc(C#N)cc3)n2)c(C)c1
solubility thermodynamic at 48 h [2]: 0.2 µg/mL (≈ 0.605 µM)

Cc1cc(/C=C/C#N)cc(C)c1Nc1nc(Nc2ccc(C#N)cc2)nc(OCCCN2CCOCC2)n1
solubility thermodynamic at 48 h [2]: 14.2 µg/mL (≈ 27.8 µM)

CC(C)=CCOc1cc(NC(=S)c2ccoc2C)ccc1Cl [UC 781]
Intrinsic_solubility [4]: < 0.03 µg/mL

CN1C(C(=O)Nc2ccccn2)=C(O)c2ccccc2S1(=O)=O [PIROXICAM]
solubility thermodynamic [5]: 6.4 µg/mL (≈ 19.3 µM)
solubility thermodynamic at 48 h [2]: 7.2 µg/mL (≈ 21.7 µM)

Cc1cc(C)c(Nc2ccnc(Nc3ccc(C#N)cc3)n2)c(C)c1 [DAPIVIRINE]
EC50 [6]: 7 nM
EC50 [1, 12]: 39 nM
EC50 [3, 12]: 39 nM
EC50 [7]: 1.2 nM
CC50 [8]: 2000 nM

CCc1cc(F)c(Nc2nc(Nc3ccc(C#N)cc3)nc(OCCCN3CCOCC3)n2)c(F)c1
EC50 [1, 12]: 500 nM
EC50 [3, 12]: 50 nM

Cc1cc(C)c(Nc2nc(Nc3ccc(C#N)cc3)nc(OCCCC3CCNCC3)n2)c(C)c1
EC50 [1, 12]: 1200 nM
EC50 [3, 12]: 140 nM

Cc1ccnc2c1NC(=O)c1cccnc1N2C1CC1 [NEVIRAPINE]
EC50 ([1]; mt2): Not Active
solubility [9]: 167 µg/mL (≈ 627 µM)
EC50 ([3]; mt2): Not Active
CC50 [10]: > 100000 nM

Cc1cc(C)c(Nc2nc(Nc3ccc(C#N)cc3)nc(OCCN3CCOCC3)n2)c(C)c1
EC50 [1, 12]: 700 nM
solubility thermodynamic at 48 h [2]: 4.42 µg/mL (≈ 9.62 µM)
EC50 [3, 12]: 110 nM

N#Cc1ccc(Nc2nc(Nc3c(F)cc(C4CC4)cc3F)nc(OCCCN3CCOCC3)n2)cc1
EC50 [1, 12]: 1100 nM
EC50 [3, 12]: 150 nM

Cc1cc(C)c(Nc2cc(OCCCN3CCOCC3)nc(Nc3ccc(C#N)cc3)n2)c(C)c1
EC50 [1, 12]: 480 nM
solubility thermodynamic at 48 h [2]: 27.3 µg/mL (≈ 57.8 µM)
EC50 [3, 12]: 38 nM

Cc1cc(F)c(Nc2nc(Nc3ccc(C#N)cc3)nc(OCCCN3CCOCC3)n2)c(F)c1
EC50 [1, 12]: 350 nM
solubility thermodynamic at 48 h [2]: 22.9 µg/mL (≈ 47.6 µM)
EC50 [3, 12]: 70 nM

Cc1cc(C#N)cc(C)c1Oc1nc(Nc2ccc(C#N)cc2)nc(N)c1Br [ETRAVIRINE]
solubility [11]: < 1 µg/mL

Cc1cc(C)c(Nc2cc(OCCN3CCOCC3)nc(Nc3ccc(C#N)cc3)n2)c(C)c1
EC50 [1, 12]: 700 nM
solubility thermodynamic at 48 h [2]: 12.5 µg/mL (≈ 27.3 µM)
EC50 [3, 12]: 60 nM

Cc1cc(C)c(Nc2nc(Nc3ccc(C#N)cc3)nc(OCCC3CCNCC3)n2)c(C)c1
EC50 [1, 12]: 1000 nM
EC50 [3, 12]: 100 nM

CC(C)c1cc(F)c(Nc2nc(Nc3ccc(C#N)cc3)nc(OCCCN3CCOCC3)n2)c(F)c1
EC50 [1, 12]: 270 nM
EC50 [3, 12]: 30 nM

Cc1cc(C#N)cc(C)c1Nc1nc(Nc2ccc(C#N)cc2)nc(OCCCN2CCOCC2)n1
EC50 [1, 12]: 1000 nM
solubility thermodynamic at 48 h [2]: 13.3 µg/mL (≈ 27.4 µM)
EC50 [3, 12]: 42 nM
